This note sets out measurements from ChEMBL document CHEMBL1136984, “Orally active C-6 heteroaryl- and heterocyclyl-substituted imidazo[1,2-a]pyridine acid pump antagonists (APAs)” (Bioorg Med Chem Lett, 2009).

The conditions of data set [1]: buffer, pH 7.4.
Data set [2] in a line: in vivo. The following applies: rat, blood, iv, 1 mg/kg.
Data set [3] in a line: in vivo. The note with it: rat, iv, 1 mg/kg.
The nature of data set [4]: in vivo. The note with it: rat, iv, 1 mg/kg. This is another data set of the same source.
The nature of data set [5]: in vivo. The following applies: rat, po, 1 mg/kg.
Data set [6] in a line: in vivo. The note with it: dog, iv, 1 mg/kg.
Data set [7] can be described thus: Blood clearance in dog at 1 mg/kg/hr, iv dosed in saline containing hydroxylpropyl-beta-cyclodextrin and DMSO. The data set is classed as ADME, organism-based, Canis lupus familiaris. Details: route intravenous.
Data set [8] in a line: in vivo. The following applies: dog, po, 1 mg/kg.
Data set [9] is described as follows: in vivo. The following applies: dog, iv, 1 mg/kg. This is another data set of the same source.

For the compound `Cc1cccc(C)c1CNc1cc(N2CCCCC2=O)cn2c(C)c(C)nc12`, in data set [1], the CHI came out at 2.79.
Still for that read-out and setting: then `Cc1nc2c(NCc3ccc(F)cc3Cl)cc(-n3ccccc3=O)cn2c1C`, with 2.26.
On the same count and under the same terms, then `CCc1cccc(C)c1CNc1cc(C(N)=O)cn2c(C)c(C)nc12`, with 2.52.
As to `Cc1cn2cc(-n3ccccc3=O)cc(NCc3c(C)cccc3C)c2n1`, in data set [2], the clearance – broadly, a measure of how efficiently the substance is removed, as volume per time – was found to be 58 mL/min/kg. Besides, the distribution volume (Vd) – broadly, a proportionality between amount in the body and measured concentration, not a real space – in data set [3] was found to be 1.8 L/kg. For the same compound, the half-life (commonly the time in which the quantity being followed falls by half) in data set [4] was 0.5 h. Further, the bioavailability (commonly dose-corrected exposure relative to a reference, in per cent) in [5] is 18%.
The compound `Cc1cccc(C)c1CNc1cc(-n2ccc(=O)cc2)cn2c(C)c(C)nc12` displayed a CHI in [1] of 1.58.
On the same count and under the same terms, then `Cc1nc2c(NCc3ccc(F)cc3Cl)cc(-n3cncn3)cn2c1C`, with 2.61; and `Cc1cccc(CNc2cc(-n3ccccc3=O)cn3c(C)c(C)nc23)c1`, with 2.17; and `Cc1cccc(C)c1CNc1cc(-n2cc(C(N)=O)ccc2=O)cn2c(C)c(C)nc12`, with 1.71.
With `Cc1cccc(C)c1COc1cc(-n2ccccc2=O)cn2c(C)c(C)nc12`, the CHI in [1] stood at 2.12.
`Cc1cccc(C)c1CNc1cc(C(=O)NCCO)cn2c(C)c(C)nc12` [LINAPRAZAN] gave a CHI in data set [1] of 2.14.
Turning to `Cc1cccc(C)c1CNc1cc(-n2cncn2)cn2c(C)c(C)nc12`, the results for the clearance in [2] and in [7] were 83 mL/min/kg and 50 mL/min/kg, respectively. For the same compound, the Vd in [3] is 3.5 L/kg; in data set [6], 6.6 L/kg. Besides, the CHI in data set [1] is 3.07. The bioavailability in data set [8] was found to be 12%; in data set [5], 21%. The half-life in [9] is 2.3 h.
On to `COc1ccccc1CNc1cc(-n2ccccc2=O)cn2c(C)c(C)nc12`, for which the CHI in data set [1] worked out at 1.93.
`Cc1nc2c3c(c(-n4ccccc4=O)cn2c1C)CC[C@@H](c1ccccc1)N3` showed a CHI in [1] of 3.35.
On the same count and under the same terms, then `Cc1nc2c(NCc3cccnc3)cc(-n3ccccc3=O)cn2c1C`, with 0.73.
Still for that read-out and setting: then `Cc1cccc(C)c1CNc1cc(-n2cnccc2=O)cn2c(C)c(C)nc12`, with 2.33.
With `Cc1cccc(C)c1CNc1cc(-n2ccccc2=O)cn2c(CO)c(C)nc12`, the clearance in [2] was 37 mL/min/kg; in data set [7], 10 mL/min/kg. For the same compound, the Vd is 1 L/kg in data set [3] and 1.1 L/kg in data set [6]. Besides, the half-life is 5.3 h in data set [4] and 1.6 h in [9]. Also, the figures for the bioavailability in data set [8] and in [5] were 36% and 28%, respectively.
